“Also recorded” adds a separate entry of the source.
Columns and labels:
rats [1] = assay: Paired-pulse (prepulse) inhibition test for cognitive filtering deficits; assay type: in vivo, rat; settings: L-Theanine 10 mg/kg; for prepulse inhibition / sensory filtering: both 30 and 100 msec between pre-pulse and test pulse, 10 days twice daily i.p. THC 2.5-10 mg/kg, relative to vehicle control rats, FIG. 1
Experimental: (§1) Four groups of ten rats were studied. The first group of rats was given twice daily intra-peritoneal doses of THC. The dosage regime was as follows
(§2) Immediately preceding each dose of THC, each rat was dosed with 10 mg/kg L-Theanine, administered intra-peritoneally.
(§3) The second group of rats was given the same doses of THC and no L-Theanine.
(§4) The third group of rats was given twice daily doses of L-Theanine but no THC.
(§5) The fourth group of rats was given neither THC nor L-Theanine.
(§6) All groups of rats were fed, watered and otherwise housed identically. At the end of the 10 day period, the rats were subject to a serious of tests.
Rats were acclimatized to the startle chambers (Med Associates) for 5 min over 3 days. On the last day of acclimation, rats were tested in an input/output (I/O) function consisting of 12 increasing startle pulses (from 65 to 120 dB, 5 dB increments) to determine the appropriate gain setting for each individual rat. The testing procedure consisted of the following phases: the acclimation phase, a habituation phase (Block 1), and PPI measurement (Block 2). During acclimation, rats were exposed to the chambers and white background noise (68 dB) for 5 min. During Block 1, 10 pulse alone trials (110 dB white noise, 20 ms duration) were delivered at 15-20 s inter-trial intervals. Block 2 consisted of […] presented 10 times in a pseudo-randomized order at 15-20 s intervals: 10 pulse-alone trials, and 10 of each of the three different prepulse-pulse trial types (72, 76, 80) with interstimulus intervals of 30 and 100 ms. Pulse-alone trials consisted of a startle stimulus-only presentation, whereas prepulse-pulse trials consisted of the presentation of a weaker non-startling prepulse (white noise, 20 ms duration) before the startling stimulus. PPI was calculated for each animal and each trial condition as PPI (%)=(1-average startle amplitude to pulse with prepulse/average startle amplitude to pulse only)×100.

rats [2] = assay: Sucrose preference testing for depression/anhedonia symptoms; assay type: in vivo, rat; settings: 2% sucrose vs. plain water, chronic THC 10 days twice daily i.p., L-Theanine 10 mg/kg, FIG. 2
Experimental: as §1, §2, §3, §4, §5, §6
Rats were water-restricted for 12 hrs prior to being given a 2-bottle choice test between a solution containing 2% sucrose vs. plain water. The amounts consumed from each bottle were measured over 24 hr for 4 days. A sucrose preference index was calculated for each rat and averaged across groups by taking the percentage of the volume of sucrose intake over the total volume of fluid intake over […].

rats [3] = assay: Novel object memory test (Novel Object Recognition); assay type: in vivo, rat; settings: 60 min delay, chronic THC 10 days twice daily i.p., L-Theanine 10 mg/kg, FIG. 3
Experimental: as §1, §2, §3, §4, §5, §6
The test sessions consisted of two 3-min trials. During the first trial (T1 acquisition trial), each rat was placed in the center of an arena containing two identical objects placed in the far corners 15 cm from the side wall. […] Times spent in exploration were videotaped with a video-tracking system (ANY-maze; Stoelting) and analyzed by an experimenter blind to the treatment conditions. Exploration times were recorded and used to calculate object recognition index [time spent with novel object/total time exploring both objects]

[4] = test system: single dopamine neurons in the ventral tegmental area; assay: In vivo single-unit electrophysiology recordings in the VTA; parameters: species or system rat; settings: rats; chronic THC exposure, L-Theanine 10 mg/kg; FIG. 4
Experimental: as §1, §2, §3, §4, §5, §6
(§7) Extracellular single-unit electrophysiological recordings were performed in vivo in adult (>PND 75) pretreated rats during adolescence. The recordings were taken from either putative glutamatergic (GLUT) PFC neurons or dopaminergic (DA) VTA neurons. Rats were anesthetized with urethane (1.4 g/kg, i.p., Sigma-Aldrich) and placed in a stereotaxic frame with body temperature maintained at 37° C. […] Extracellular signals were amplified (×5000) using a MultiClamp 700B amplifier (Molecular Devices), digitized at 25 kHz and recorded on the computer using a Digidata 1440 A and pClamp software (Molecular Devices). […]

[5] = test system: single neurons of the prefrontal cortex (PFC); assay: In vivo single-unit electrophysiology recordings in the PFC (burst testing); parameters: species or system rat; settings: rats; chronic THC exposure, L-Theanine 10 mg/kg; FIG. 5
Experimental: as §1, §2, §3, §4, §5, §6
Extracellular single-unit electrophysiological recordings were performed in vivo in adult (>PND 75) pretreated rats during adolescence. The recordings were taken from either putative glutamatergic (GLUT) PFC neurons or dopaminergic (DA) VTA neurons. […] Extracellular signals were amplified (×5000) using a MultiClamp 700B amplifier (Molecular Devices), digitized at 25 kHz and recorded on the computer using a Digidata 1440 A and pClamp software (Molecular Devices). […]
Putative mPFC pyramidal cells were identified based on established criteria85: (1) firing frequency <10 Hz, (2) waveform shape, and (3) action potential duration >2.5 ms. […] After an individual putative pyramidal neuron was isolated, its spontaneous activity was recorded for 5 min. […]

[6] = test system: gamma-band activity in the rat prefrontal cortex; assay: Local field potential recordings in prefrontal cortex (normalized power testing); assay type: in vivo; settings: chronic THC exposure, L-Theanine 10 mg/kg, 0-100 Hz range
Experimental: as §1, §2, §3, §4, §5, §6, §7

[7] = test system: glycogen-synthase-kinase-3A; assay: Western Blot of GSK-3α protein expression; assay type: in vivo, rat; settings: rats, chronic THC exposure, L-Theanine 10 mg/kg
Experimental: (§8) FIG. 7. […] These molecular signaling effects are prevented by co-administration with L-Theanine (10 mg/kg), as measured in a Western Blot procedure.
as §1, §2, §3, §4, §5, §6

[8] = test system: glycogen-synthase-kinase-3B; assay: Western Blot of GSK-3β protein expression; assay type: in vivo, rat; settings: rats, chronic THC exposure, L-Theanine 10 mg/kg
Experimental: as §8, §1, §2, §3, §4, §5, §6

[9] = test system: Akt (protein kinase B) threanine308; assay: Protein expression of Akt308 in prefrontal cortex; assay type: in vivo; settings: prefrontal cortex of rat brain; chronic THC, L-Theanine 10 mg/kg; FIG. 8
Experimental: FIG. 8. […] This effect is prevented by L-Theanine (10 mg/kg) co-administration.
as §1, §2, §3, §4, §5, §6

Akt at serine 473 = assay: Protein expression of Akt at serine 473 in prefrontal cortex; assay type: in vivo; settings: prefrontal cortex of rat brain; chronic THC, L-Theanine 10 mg/kg; FIG. 8

Row | Compound | prepulse inhibition / sensory filtering (rats [1]) | sucrose preference (anhedonic, depression-like effects) (rats [2]) | object recognition (object memory) (rats [3]) | sensorimotor filtering (paired-pulse-inhibition) (rats [1]; 30 msec stimulus intervals, 72 and 84 decibel stimulus intensities, FIG. 1A) | sensorimotor filtering (paired-pulse-inhibition) (rats [1]; 100 msec stimulus intervals, 72, 76 and 80 decibel stimulus intensities, FIG. 1B) | activity rates of single dopamine neurons in the ventral tegmental area [4] | bursting pattern activity of single neurons of the prefrontal cortex [5] | gamma-band activity (local field potentials, normalized power) ([6]; FIG. 6) | gamma-band activity (local field potentials, normalized power) ([6]; FIG. 6, listed as THC only) | protein expression levels of GSK-3α ([7]; FIG. 7) | protein expression levels of GSK-3α ([7]; FIG. 7, listed as THC-alone) | protein expression levels of GSK-3β ([8]; FIG. 7) | protein expression levels of GSK-3β ([8]; FIG. 7, listed as THC-alone) | protein expression levels of Akt308 [9] | effect on Akt at serine 473 (Akt at serine 473)
1 | CCNC(=O)CC[C@H](N)C(=O)O [L-Theanine] | no apparent effects on sensory filtering | no apparent effects on sucrose preference | no apparent effects on object recognition |  |  |  |  |  |  |  |  |  |  |  | 
2 | CCCCCc1cc(O)c2c(c1)OC(C)(C)[C@@H]1CCC(C)=C[C@@H]21 [THC, Δ-9-tetrahydrocannabinol] | strong deficits in the prepulse inhibition | anhedonic (depression-like) effects; also recorded: strong sucrose preference reduction | significant object memory impairment; also recorded: strong reductions in object recognition | disruption of sensorimotor filtering | disruption of sensorimotor filtering | hyperactive activity rates | hyperactive ‘bursting’ pattern activity state; also recorded: neuronal hyperactivity | significant decrease in gamma-band activity states | generally decreased activity | significant loss in the protein expression levels | significant decrease | significant loss in the protein expression levels | significant decrease | significant downregulation in protein expression levels of Akt308 | no effect
